This is an account of results in patent publication US11819532B2, “Peptide macrocycles against Acinetobacter baumannii” (Hoffmann-La Roche Inc., priority 2018, dated 2023).

Structures are written as SMILES.

For data set [1] the following is noted: positive control and comparator in all assay runs; cited from earlier work.
The test system of the next data set is A. baumannii ATCC 17978. The data set can be described thus: 50% growth inhibitory concentration (IC50) determination, antimicrobial susceptibility testing. Format: cell-based. The settings on record: Acinetobacter baumannii; 50% growth inhibition, A. baumannii strain ATCC17978, Iso-Sensitest medium; read-out: IC50 ATCC17978.
Data set [2] relates to primary hepatocytes. The data set is described as follows: Hepatocyte uptake assay scaled to in vivo clearance (cynomolgus monkey). Particulars: scaled from monkey hepatocyte uptake, well-stirred liver model. Format: in vitro ADME. From the text: (§1) The compounds of the present invention are cleared through hepatic uptake, which can be determined experimentally in vitro using methods described in the art (e.g., K. Menochet, K. E. Kenworthy, J. B. Houston, A. Galetin, Journal of Pharmacology and Experimental Therapeutics 2012, 34, 2). In cases where the scaled in vitro hepatocyte uptake clearance data correspond to the clearance observed in animals, a meaningful prediction of the human clearance can be made on the basis of in vitro human hepatocyte uptake data.
(§2) The hepatocyte uptake assay was performed manually in 24-well plates in analogy to a protocol described in the literature (K. Menochet, K. E. Kenworthy, J. B. Houston, A. Galetin, Journal of Pharmacology and Experimental Therapeutics 2012, 34, 2). […] Next, the cell monolayer was lysed using acetonitrile/water 3:1, and the intracellular concentration was measured using LC-MS/MS.
(§3) Total (CLuptake) and passive (CLpassive) uptake clearance values were measured from initial uptake rates in the absence and presence of inhibitors. Uptake rates were calculated over 10 minutes at 37° C. from the slope of the linear regression of the cell concentrations versus time plot. Total and passive uptake clearance values were calculated by dividing the slope by the initial substrate concentration and were normalized for protein content. […]

The nature of data set [3]: Single dose pharmacokinetic study in male cynomolgus monkeys. The settings on record: cynomolgus monkey, plasma, intravenous bolus dose of 1 mg/kg, read-out: cynomolgus monkey clearance, observed in vivo. On the procedure: Three male monkeys were administered with compound formulation (2 mg/mL in 0.9% saline) as an intravenous bolus dose of 1 mg/kg.
(§4) Blood was sampled at 0.08, 0.25, 0.5, 1, 2, 4, 7 and 24 hours after administration and the blood collecting tubes were centrifuged for 5 min at 5200 g at room temperature to isolate the plasma supernatant.
Concentrations of compound in plasma were analyzed using a LC-MS method with a calibration range of 0.5-2500 ng/mL and are summarised in Example 23.

The nature of data set [4]: Single dose pharmacokinetic study in male rats. Particulars: rat, plasma, intravenous bolus dose of 6 mg/kg, read-out: rat clearance, observed in vivo. The protocol: Three male rats were administered with compound formulation (3 mg/mL in 0.9% saline) as an intravenous bolus dose of 6 mg/kg.
as §4
Concentrations of compound in plasma were analyzed using a LC-MS method with a calibration range of 1-2500 ng/mL. The clearance values are calculated using methods described in the art and are summarised in Example 23.

Data set [5] deals with primary hepatocytes. The data set is described as follows: Hepatocyte uptake assay scaled to in vivo clearance (rat). Format: in vitro ADME. The settings on record: scaled from rat hepatocyte uptake, well-stirred liver model.
Text: as §1, §2, §3

For data set [6], the system named is primary hepatocytes. The data set can be described thus: Hepatocyte uptake assay scaled to in vivo clearance (human). Format: in vitro ADME. Particulars: scaled from human hepatocyte uptake, well-stirred liver model.
Text: as §1, §2, §3

The nature of data set [7]: Plasma precipitation screening assay. Also noted: species or system rat. The settings on record: minimal effect concentration, lowest concentration giving absorbance difference OD362≥0.05, rat plasma 1:1, 10 minutes room temperature. The protocol: An aliquot (10 μL) of compound solubilized in physiological buffer or the formulation used for its parenteral administration in vivo, and of various dilutions thereof in phosphate-buffered saline (PBS), is mixed 1:1 with rat plasma. After 10 minutes incubation at room temperature the UV-absorption of the mixtures is measured and compared to absorption of blank plasma or plasma with vehicle solution. A significant (often concentration dependent) increase of absorption is indicative of precipitation.
Whole blood is obtained from WISTAR rats (Hanbrl:Wist SPF) under terminal anaesthesia after intraperitoneal injection of a pentobarbital solution (from animals euthanized for collection of tissue for other experimental purposes). Blood is collected in 1.2 mL of Heparin S-Monovette tubes (Sarstedt) for the preparation of heparin plasma.
The tubes are then centrifuged for 5 min at 5200 g at room temperature to isolate the plasma supernatant. The plasma is used in the assay within 48 h of collection (storage at 4° C.).
Test compounds are received as powder or formulated. When obtained as powder, they are solubilized in 0.9% aq. sodium chloride solution in order to get the highest indicated concentration to be tested. The solubility is visually checked and the solutions are filtered using 0.45 PVDF hydrophilic filters (Durapore®, Darmstadt, Germany), to remove possible solid impurities. pH of this initial solution might be measured in the filtered stock solutions, before proceeding to prepare a compound dilution series in PBS (1:1-dilution steps).
The assay is conducted in 384-well plates. 10 μL of rat plasma is added to 10 μL of the various compound solutions. The assay is performed in duplicate. 10 μL of vehicle (0.9% aq. sodium chloride solution, PBS) added to the plasma is used as a negative control. The absorption is measured at 362 nm.
Raw data obtained are absorbance data. The difference between absorbance of the sample and mean absorbance of vehicle is calculated. The minimal effect concentration (MEC) is defined as the lowest concentration giving an absorbance difference, OD362≥0.05.

`CN1C(=O)[C@H](CCCCN)NC(=O)[C@H](CCCN)NCc2cccnc2Sc2c(Cl)ccc(Cl)c2CNC(=O)[C@@H]1Cc1c[nH]c2ccccc12` [CAS-RN 2097284-11-0, (11S,14S,17S)-14-(4-Aminobutyl)-11-(3-aminopropyl)-22,25-dichloro-17-(1H-indol-3-ylmethyl)-16-methyl-2-thia-4,10,13,16,19-pentazatricyclo[19.4.0.03,8]pentacosa-1(25),3(8),4,6,21,23-hexaene-12,15,18-trione]: the precipitation in plasma entry in data set [1] is recorded as “known to induce precipitation in plasma”.

Regarding `CN1C(=O)[C@H](CCCCN)NC(=O)[C@H](CCCN)NCc2cccnc2Sc2cccc(-c3ccc(C(=O)O)cc3)c2CNC(=O)[C@@H]1Cc1c[nH]c2ccccc12` [Example 1.00, 4-[(11S,14S,17S)-14-(4-Aminobutyl)-1-(3-aminopropyl)-17-(1H-indol-3-ylmethyl)-16-methyl-12,15,18-trioxo-2-thia-4,10,13,16,19-pentazatricyclo[19.4.0.03,8]pentacosa-1(25), 3(8),4,6,21,23-hexaen-22-yl]benzoic Acid], the IC50 – broadly, the concentration that inhibits the measured activity by half – with A. baumannii ATCC 17978 came to 98 nM. Further, the “cynomolgus monkey clearance, in vitro scaled” value in the data set with primary hepatocytes [2] came out at 3.8 mL/min/kg. Also, the values for the clearance in data set [3] and in data set [4] were 4.8 mL/min/kg and 14.3 mL/min/kg, respectively. Moreover, in the data set on primary hepatocytes [5], the “rat clearance, in vitro scaled” value is on record as 14.5 mL/min/kg. For the same molecule, in the data set with primary hepatocytes [6], the “human clearance, in vitro scaled (predicted)” value is 0.46 mL/min/kg. For the same molecule, the “Plasma precipitation MEC” value in data set [7] came out at 1110 µmol/L.

With `CN1C(=O)[C@H](CCCCN)NC(=O)[C@H](CCCN)NCc2cccnc2Sc2c(Cl)ccc(-c3ccc(C(=O)O)cc3)c2CNC(=O)[C@@H]1Cc1c[nH]c2ccccc12` [drawing 99, reference compound], the “cynomolgus monkey clearance, in vitro scaled” value in the data set on primary hepatocytes [2] is reported as 28.3 mL/min/kg. Further, the clearance (commonly a measure of how efficiently the substance is removed, as volume per time) in data set [3] was found to be 14.5 mL/min/kg; in data set [4] it was 23.5 mL/min/kg. The “rat clearance, in vitro scaled” value in the data set with primary hepatocytes [5] was 28.7 mL/min/kg. For the same molecule, the “human clearance, in vitro scaled (predicted)” value with primary hepatocytes [6] is reported as 3.91 mL/min/kg.
